The values below come from patent US10294202B2, “Pyrrolidinones as herbicides” (FMC Corporation, priority 2013, dated 2019).

One assay relates to pigweed. As to the kind of experiment: Test D pre-/postemergence herbicide test. The format is in vivo, Amaranthus retroflexus. The conditions noted are these: for Plant response rating: Postemergence, Pigweed, scale 0 to 100; for Plant response rating, Pigweed: Preemergence, scale 0 to 100 (0 no effect, 100 complete control). The source says: (§1) Seeds of plant species selected from bluegrass (annual bluegrass, Poa annua), blackgrass (Alopecurus myosuroides), canarygrass (littleseed canarygrass, Phalaris minor), chickweed (common chickweed, Stellaria media), galium (catchweed bedstraw, Galium aparine), bromegrass, downy (downy bromegrass, Bromus tectorum), field poppy (Papaver rhoeas), field violet (Viola arvensis), foxtail, green (green foxtail, Setaria viridis), deadnettle (henbit deadnettle, Lamium amplexicaule), ryegrass, Italian (Italian ryegrass, Lolium multiflorum), kochia (Kochia scoparia), lambsquarters (Chenopodium album), oilseed rape (Brassica napus), pigweed (Amaranthus retroflexus), chamomile (scentless chamomile, Matricaria inodora), Russian thistle (Salsola kali), speedwell (bird's-eye speedwell, Veronica persica), barley, spring (spring barley, Hordeum vulgare), wheat, spring (spring wheat, Triticum aestivum), buckwheat, wild (wild buckwheat, Polygonum convolvulus), mustard, wild (wild mustard, Sinapis arvensis), oat, wild (wild oat, Avena fatua), radish, wild (wild radish, Raphanus raphanistrum), […]), barley, winter (winter barley, Hordeum vulgare), and wheat, winter (winter wheat, Triticum aestivum) were planted into a silt loam soil and treated preemergence with test chemicals formulated in a non-phytotoxic solvent mixture which included a surfactant. At the same time, these species were planted in pots containing Redi-Earth® planting medium (Scotts Company, 14111 Scottslawn Road, Marysville, Ohio 43041) comprising spaghnum peat moss, vermiculite, wetting agent and starter nutrients and treated with postemergence applications of the test chemicals formulated in the same manner. Plants ranged in height from 2 to 18 cm (1- to 4-leaf stage). Treated plants and controls were maintained in a controlled growth environment for 7 to 21 days after which time all species were compared to controls and visually evaluated. Plant response ratings, summarized in Table D, are based on a scale of 0 to 100 where 0 is no effect and 100 is complete control. A dash (-) response means no test result.

In another assay the test system is Russian thistle. As to the kind of experiment: Test D pre-/postemergence herbicide test. The format is in vivo, Salsola kali. Conditions: for Plant response rating: Postemergence, Russian Thistle, scale 0 to 100; for Plant response rating, Russian Thistle: Preemergence, scale 0 to 100 (0 no effect, 100 complete control).
Source text: as §1

As for `O=C1NCC(c2ccc(F)c(F)c2)C1C(=O)Nc1ccccc1C(F)(F)F` (racemic) [Compound 6], the Plant response rating with pigweed (16 g ai/ha) is on record as 0; in the assay on pigweed (31 g ai/ha), 10; with pigweed (62 g ai/ha), 10; in the assay with pigweed (125 g ai/ha), 20; in the assay on pigweed (250 g ai/ha), 20; in the assay on Russian thistle (16 g ai/ha) it was 0. Besides, the Plant response rating in the assay on Russian thistle (31 g ai/ha) came to 0; in the assay on Russian thistle (62 g ai/ha), 0; in the assay on Russian thistle (125 g ai/ha), 0; in the assay on Russian thistle (250 g ai/ha), 100. Moreover, the “Plant response rating, Pigweed” value with pigweed (62 g ai/ha), with pigweed (125 g ai/ha), in the assay with pigweed (16 g ai/ha), in the assay on pigweed (31 g ai/ha) and in the assay on pigweed (250 g ai/ha) was 0 throughout. In addition, the “Plant response rating, Russian Thistle” value with Russian thistle (62 g ai/ha) came to 0; with Russian thistle (125 g ai/ha), 10; in the assay with Russian thistle (16 g ai/ha), 0; in the assay with Russian thistle (31 g ai/ha), 0; in the assay with Russian thistle (250 g ai/ha), 30.
`O=C1NCC(c2ccc(F)c(C(F)(F)F)c2)C1C(=O)Nc1cccc(F)c1F` (racemic) [Compound 77]: the “Plant response rating, Pigweed” value with pigweed (62 g ai/ha) turned out to be 70; in the assay on pigweed (125 g ai/ha) it was 80; with pigweed (31 g ai/ha), 25; in the assay with pigweed (250 g ai/ha), 80.
With `O=C1NCC(c2cc(F)c(F)cc2F)C1C(=O)Nc1cccc(F)c1F` (stereo not drawn) [Compound 50], the Plant response rating in the assay on pigweed (16 g ai/ha) came to 5; with pigweed (31 g ai/ha) it was 0; in the assay on pigweed (62 g ai/ha) it was 0; with pigweed (125 g ai/ha), 10; in the assay with Russian thistle (16 g ai/ha), 5; with Russian thistle (31 g ai/ha), 0. Also, the Plant response rating was determined as 10 in the assay with Russian thistle (62 g ai/ha) and 5 in the assay on Russian thistle (125 g ai/ha). Moreover, the “Plant response rating, Pigweed” value with pigweed (62 g ai/ha) is listed as 25; in the assay on pigweed (125 g ai/ha), 5; in the assay on pigweed (16 g ai/ha), 10; in the assay on pigweed (31 g ai/ha), 10. Moreover, the “Plant response rating, Russian Thistle” value in the assay with Russian thistle (62 g ai/ha), in the assay on Russian thistle (125 g ai/ha), with Russian thistle (16 g ai/ha) and with Russian thistle (31 g ai/ha) was 0 each time.
Turning to `O=C1NCC(c2ccc(Cl)c(F)c2)C1C(=O)Nc1cccc(F)c1F` (stereo not drawn) [Compound 52], the Plant response rating is reported as 0 in the assay with pigweed (16 g ai/ha); 0 in the assay with pigweed (31 g ai/ha); 0 in the assay on pigweed (62 g ai/ha); 30 with pigweed (125 g ai/ha); 40 in the assay on pigweed (250 g ai/ha); 0 in the assay with Russian thistle (16 g ai/ha). Besides, the Plant response rating with Russian thistle (31 g ai/ha), with Russian thistle (62 g ai/ha), in the assay on Russian thistle (125 g ai/ha) and with Russian thistle (250 g ai/ha) was 0 each time. The “Plant response rating, Pigweed” value is given as 10 in the assay with pigweed (62 g ai/ha); 10 with pigweed (125 g ai/ha); 0 in the assay with pigweed (16 g ai/ha); 10 with pigweed (31 g ai/ha); 15 in the assay on pigweed (250 g ai/ha). The “Plant response rating, Russian Thistle” value is listed as 0 with Russian thistle (62 g ai/ha); 20 in the assay with Russian thistle (125 g ai/ha); 0 in the assay on Russian thistle (16 g ai/ha); 0 in the assay with Russian thistle (31 g ai/ha); 30 with Russian thistle (250 g ai/ha).
